These results are taken from patent publication EP0612525B1, “Transdermal treatment with mast cell degranulating agents for drug-induced hypersensitivity” (BRISTOL-MYERS SQUIBB COMPANY, priority 1993, dated 1994).

Data set [1] deals with dermal mast cells. The data set can be described thus: Chymase depletion from mast cells in skin organ cultures (immunohistochemical staining). The data set is classed as cell-based. To be noted: 5 mM in culture medium, positive control. The method, then:
Chymase is a proteolytic enzyme with chymotrypsin activity that is released from dermal mast cells upon degranulation. The enzyme has been implicated in proteolytic breakdown of endothelial cell basement membrane matrix proteins and to thereby facilitate leukocyte diapedesis. The release of chymase from mast cells was detected as a depletion of chymase-specific immunohistochemical staining observed in cryosections of the dermis in skin organ cultures. As a positive control 5 mM of morphine sulfate (MSO4 + ctrl) was added to the culture medium bathing the skin organ cultures. The negative control was untreated culture medium (SCM-ctrl). Cis-urocanic acid was added to the culture medium at 1 µg/ml and 10 µg/ml.

The subject of data set [2] is BALB/c female mice. The data set can be described thus: Contact hypersensitivity, TNBS sensitization / TNCB ear challenge (ear swelling). To be noted: 20 µg intradermally; for % SUPPRESSION: TNBS 2.45 mg. The data set is classed as in vivo.
Data set [3] is described as follows: In vitro drug permeation from plastisol patches through human skin (paper example). The class given is in vitro ADME.

Take `CN1CC[C@]23c4c5ccc(O)c4O[C@H]2[C@@H](O)C=C[C@H]3[C@H]1C5.O=S(=O)(O)O` [morphine sulfate, reference compound]: in data set [1], the “chymase positive mast cell per mm^2” value stood at 37 ± 15 per mm^2.
With `O=C(O)c1cc(=O)c2c(OCC(O)COc3cccc4oc(C(=O)O)cc(=O)c34)cccc2o1` [sodium cromolyn, reference compound], the “suppression of contact sensitization (in words)” value in data set [2] is “failed to suppress contact sensitization”. For the same compound, the “enhancement in the contact sensitivity response” value in data set [2] (24 and 48 hours together) is on record as 14-17%. In addition, the “% SUPPRESSION” value is on record as “+14.1%” in data set [2] (24 Hours) and “+17.0%” in data set [2] (48 Hours).
Take `CCCCCCCC/C=C\CCCCCCCC(=O)O` [oleic acid]: the “permeation rate of ISDN” value in data set [3] is “significantly enhances”.
